Data published in the supplement of paper PMC11061612.

Key:
Assay in all cases: combination Emax (second highest fraction inhibited in the dose matrix, 72 h); higher = more inhibition; extreme values may be limits of the assay
[1] = tested on: NCI-H441 (Lung Adenocarcinoma)
How it was run: (§1)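 Cell lines in DMEM/F12 or RPMI with 10% FBS were plated in 1536-well plates, held 24 hours at 37°C, 5% CO2, then given two-drug dose matrices for 72 hours (DMSO typically 0.2%). Viability was read by CellTiter-Glo 2.0 luminescence and scaled as inhibition from 0 (vehicle wells) to 1 (blank wells). Combination Emax is the second-highest inhibition in the matrix; Bliss excess is observed combination effect minus expected EA + EB − EA·EB, EA and EB being single-agent effects.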

[2] = tested on: CAL-27 (Oral Cavity Carcinoma)
How it was run: as §1

[3] = tested on: DU-4475 (Breast Carcinoma)
How it was run: as §1

[4] = tested on: KYSE-220 (Esophageal Squamous Cell Carcinoma)
How it was run: as §1

[5] = tested on: DMS-53 (Small Cell Lung Carcinoma)
How it was run: as §1

[6] = tested on: HT55 (Colorectal Carcinoma)
How it was run: as §1

[7] = tested on: CESS (Acute Myeloid Leukemia)
How it was run: as §1

[8] = tested on: JHH-2 (Hepatocellular Carcinoma)
How it was run: as §1

[9] = tested on: EW-16 (Ewing's Sarcoma)
How it was run: as §1

[10] = tested on: A2780 (Ovarian Carcinoma)
How it was run: as §1

[11] = tested on: A204 (Rhabdomyosarcoma)
How it was run: as §1

[12] = tested on: IM-9 (Non-Cancerous)
How it was run: as §1

[13] = tested on: A253 (Head and Neck Carcinoma)
How it was run: as §1

[14] = tested on: 5637 (Bladder Carcinoma)
How it was run: as §1

[15] = tested on: NCI-H1651 (Lung Adenocarcinoma)
How it was run: as §1

[16] = tested on: ESO26 (Esophageal Adenocarcinoma)
How it was run: as §1

[17] = tested on: RH-41 (Rhabdomyosarcoma)
How it was run: as §1

[18] = tested on: LS-411N (Colorectal Carcinoma)
How it was run: as §1

[19] = tested on: JVM-2 (B-Cell Non-Hodgkin's Lymphoma)
How it was run: as §1

[20] = tested on: MHH-ES-1 (Ewing's Sarcoma)
How it was run: as §1

| Structure (SMILES) | combination Emax [1] | combination Emax [2] | combination Emax [3] | combination Emax [4] | combination Emax [5] | combination Emax [6] | combination Emax [7] | combination Emax [8] | combination Emax [9] | combination Emax [10] | combination Emax [11] | combination Emax [12] | combination Emax [13] | combination Emax [14] | combination Emax [15] | combination Emax [16] | combination Emax [17] | combination Emax [18] | combination Emax [19] | combination Emax [20] |
| --- | --- | --- | --- | --- | --- | --- | --- | --- | --- | --- | --- | --- | --- | --- | --- | --- | --- | --- | --- | --- |
| Cc1c2c(nn1C)CSCc1cc(n(C)n1)CSc1cc(c3ccccc3c1)OCCCc1c(C(=O)O)n(C)c3c-2c(Cl)ccc13 [AZD5991] + Cc1cc2ncnn2cc1Nc1ncc2c(n1)n(C1CCOCC1)c(=O)n2C [AZD7648] (first compound max 1 µM, 7x7, partner max 10 µM) | 0.259 | 0.985 | 0.297 | 0.218 | 0.554 | 0.242 | 0.416 | 0.596 | 0.299 | 0.751 | 0.659 | 0.561 | 0.849 | 0.233 | 0.33 | 0.198 | 1 | 0.116 | 0.68 | 0.688 |
| Cc1c2c(nn1C)CSCc1cc(n(C)n1)CSc1cc(c3ccccc3c1)OCCCc1c(C(=O)O)n(C)c3c-2c(Cl)ccc13 [AZD5991] + Cn1cnc2c(F)c(Nc3ccc(Br)cc3Cl)c(C(=O)NOCCO)cc21 [Selumetinib] (first compound max 1 µM, 7x7, partner max 3 µM) | 0.405 | 0.988 | 1 | 0.304 | 0.618 | 0.692 | 0.289 | 0.342 | 0.258 | 0.538 | 0.459 | 0.848 | 0.944 | 0.37 | 0.218 | 0.274 | 1 | 0.826 | 0.646 | 0.672 |
| C[C@@H]1COCCN1c1cc(C2([S@](C)(=N)=O)CC2)nc(-c2ccnc3[nH]ccc23)n1 [AZD6738] + O=C(c1cc(Cc2n[nH]c(=O)c3ccccc23)ccc1F)N1CCN(C(=O)C2CC2)CC1 [Olaparib] (first compound max 10 µM, 7x7, partner max 10 µM) | 0.476 | 0.793 | 0.975 | 0.808 | 0.148 | 0.446 | 0.864 | 0.674 | 0.808 | 0.832 | 0.417 | 0.986 | 0.806 | 0.726 | 0.729 | 0.319 | 0.808 | 0.383 | 0.836 | 0.868 |
| NC1(C(=O)N[C@@H](CCO)c2ccc(Cl)cc2)CCN(c2ncnc3[nH]ccc23)CC1 [Capivasertib] + CC(=O)c1c(C)c2cnc(Nc3ccc(N4CCNCC4)cn3)nc2n(C2CCCC2)c1=O [Palbociclib] (first compound max 10 µM, 7x7, partner max 10 µM) | 0.348 | 0.69 | 0.295 | 0.712 | 0.25 | 0.607 | 0.708 | 0.608 | 0.44 | 0.77 | 0.517 | 0.706 | 0.673 | 0.387 | 0.0542 | 0.498 | 0.945 | 0.628 | 0.823 | 0.5 |
| NC1(C(=O)N[C@@H](CCO)c2ccc(Cl)cc2)CCN(c2ncnc3[nH]ccc23)CC1 [Capivasertib] + CC(C)n1c(=O)n(C)c2cnc3cc(F)c(-c4ccc(OCCCN5CCCCC5)nc4)cc3c21 [AZD1390] (first compound max 10 µM, 7x7, partner max 0.3 µM) | 0.252 | 0.321 | 0.331 | 0.49 | 0.187 | 0.381 | 0.456 | 0.539 | 0.296 | 0.643 | 0.382 | 0.577 | 0.559 | 0.336 | 0.149 | 0.449 | 0.921 | 0.434 | 0.707 | 0.354 |
| NC1(C(=O)N[C@@H](CCO)c2ccc(Cl)cc2)CCN(c2ncnc3[nH]ccc23)CC1 [Capivasertib] + CCN(CCO)CCCOc1ccc2c(Nc3cc(CC(=O)Nc4cccc(F)c4)[nH]n3)ncnc2c1 [AZD2811] (first compound max 10 µM, 7x7, partner max 1 µM) | 0.317 | 0.646 | 0.679 | 0.623 | 0.238 | 0.576 | 0.654 | 0.587 | 0.634 | 0.812 | 0.489 | 0.933 | 0.695 | 0.572 | 0.203 | 0.52 | 0.943 | 0.557 | 0.755 | 0.665 |
| NC1(C(=O)N[C@@H](CCO)c2ccc(Cl)cc2)CCN(c2ncnc3[nH]ccc23)CC1 [Capivasertib] + COc1nnc2ccc(N3CCC(c4ccc(OCCN5CCN(C)C(=O)[C@H]5C)cc4)CC3)nn12 [AZD5153] (first compound max 10 µM, 7x7, partner max 1 µM) | 0.379 | 0.833 | 0.979 | 0.838 | 0.164 | 0.572 | 0.747 | 0.605 | 0.515 | 0.873 | 0.517 | 0.811 | 0.75 | 0.627 | 0.0984 | 0.753 | 1 | 0.937 | 0.79 | 0.717 |
| NC1(C(=O)N[C@@H](CCO)c2ccc(Cl)cc2)CCN(c2ncnc3[nH]ccc23)CC1 [Capivasertib] + C[C@@H]1COCCN1C2=NC(=NC(=C2)C3(CC3)[S@](=N)(=O)C)C4=C5C=CNC5=NC=C4 [AZD6738] (first compound max 10 µM, 7x7, partner max 10 µM) | 0.448 | 0.58 | 0.987 | 0.869 | 0.34 | 0.545 | 0.91 | 0.769 | 0.784 | 0.86 | 0.467 | 0.979 | 0.852 | 0.564 | 0.581 | 0.599 | 0.976 | 0.751 | 0.864 | 0.645 |
| NC1(C(=O)N[C@@H](CCO)c2ccc(Cl)cc2)CCN(c2ncnc3[nH]ccc23)CC1 [Capivasertib] + Cn1cnc2c(F)c(Nc3ccc(Br)cc3Cl)c(C(=O)NOCCO)cc21 [Selumetinib] (first compound max 10 µM, 7x7, partner max 10 µM) | 0.351 | 0.815 | 1 | 0.763 | 0.301 | 0.767 | 0.672 | 0.674 | 0.393 | 0.828 | 0.498 | 0.874 | 0.89 | 0.395 | 0.177 | 0.523 | 0.934 | 0.786 | 0.737 | 0.379 |
| COc1cccc2c1C(=O)c1c(O)c3c(c(O)c1C2=O)C[C@@](O)(C(=O)CO)C[C@@H]3O[C@H]1C[C@H](N)[C@H](O)[C@H](C)O1 [Doxorubicin] + Cc1cc2ncnn2cc1Nc1ncc2c(n1)n(C1CCOCC1)c(=O)n2C [AZD7648] (first compound max 1 µM, 7x7, partner max 10 µM) | 0.452 | 0.741 | 1 | 0.979 | 0.455 | 0.678 | 0.949 | 0.627 | 0.913 | 0.934 | 0.925 | 1 | 0.957 | 0.546 | 0.712 | 0.801 | 0.95 | 0.508 | 0.983 | 0.916 |
| CS(=O)(=O)CCNCc1ccc(-c2ccc3ncnc(Nc4ccc(OCc5cccc(F)c5)c(Cl)c4)c3c2)o1 [Lapatinib] + C[C@@H](Oc1cc(-c2cnn(C3CCNCC3)c2)cnc1N)c1c(Cl)ccc(F)c1Cl [Crizotinib] (first compound max 10 µM, 7x7, partner max 10 µM) | 0.6 | 0.958 | 0.989 | 0.994 | 0.25 | 0.931 | 0.896 | 0.882 | 0.969 | 0.98 | 0.498 | 0.991 | 0.907 | 1 | 0.566 | 0.854 | 0.991 | 0.584 | 0.918 | 0.912 |
| CC(=O)c1c(C)c2cnc(Nc3ccc(N4CCNCC4)cn3)nc2n(C2CCCC2)c1=O [Palbociclib] + CC1(C)CCC(CN2CCN(c3ccc(C(=O)NS(=O)(=O)c4ccc(NCC5CCOCC5)c([N+](=O)[O-])c4)c(Oc4cnc5[nH]ccc5c4)c3)CC2)=C(c2ccc(Cl)cc2)C1 [Venetoclax] (first compound max 10 µM, 7x7, partner max 1 µM) | 0.224 | 0.0994 | 0.153 | 0.189 | 0.327 | 0.478 | 0.651 | 0.357 | 0.333 | 0.721 | 0.308 | 0.776 | 0.0236 | 0.231 | 0.0383 | 0.112 | 0.329 | 0.153 | 0.762 | 0.401 |
| CC(=O)c1c(C)c2cnc(Nc3ccc(N4CCNCC4)cn3)nc2n(C2CCCC2)c1=O [Palbociclib] + Cc1c2c(nn1C)CSCc1cc(n(C)n1)CSc1cc(c3ccccc3c1)OCCCc1c(C(=O)O)n(C)c3c-2c(Cl)ccc13 [AZD5991] (first compound max 10 µM, 7x7, partner max 1 µM) | 0.302 | 0.914 | 0.231 | 0.305 | 0.263 | 0.506 | 0.669 | 0.368 | 0.415 | 0.912 | 0.37 | 0.714 | 0.635 | 0.197 | 0.143 | 0.63 | 0.911 | 0.347 | 0.704 | 0.622 |
